This note sets out measurements from US20080269251A1, “Substituted Pyrazinone Derivatives as Alpha2C-Adrenoreceptor Antagonists” (priority 2005, published 2008).

In one assay the target is T1, 5HT-transporter (Homo sapiens, UniProt P31645).
T1 construct: Human platelet membranes (Oceanix Biosciences Corporation, Hanover, Md., USA) were thawed; tissue Oceanix Biosciences Corporation, Hanover, Md., USA; host or cells: human platelet membranes
The assay can be described thus: Binding experiment for the 5HT-transporter ([3H]paroxetine, human platelet membranes). The note with it: [3H]paroxetine 0.5 nM, 60 min at 25° C.; for IC50: read-out: h-5HTT pIC50 (converted). As to the method: (§1) The interaction of the compounds of Formula (I) with α2C-adrenoceptor receptors was assessed in in vitro radioligand binding experiments. In general, a low concentration of a radioligand with a high binding affinity for a particular receptor or transporter is incubated with a sample of a tissue preparation enriched in a particular receptor or transporter or with a preparation of cells expressing cloned human receptors in a buffered medium. During the incubation, the radioligand binds to the receptor or transporter. When equilibrium of binding is reached, the receptor bound radioactivity is separated from the non-bound radioactivity, and the receptor- or transporter-bound activity is counted. The interaction of the test compounds with the receptor is assessed in competition binding experiments. Various concentrations of the test compound are added to the incubation mixture containing the receptor- or transporter preparation and the radioligand. The test compound in proportion to its binding affinity and its concentration inhibits binding of the radioligand. The radioligand used for […] receptor binding was [^3H]-raulwolscine.
Human platelet membranes (Oceanix Biosciences Corporation, Hanover, Md., USA) were thawed, diluted in buffer (Tris-HCl 50 mM, 120 mM NaCl and 5 mM KCl) and quickly (max 3 s) homogenised with an Ultraturrax homogenizer. […] Incubation was stopped by rapid filtration of the incubation mixture over GF/B filters, pre-wetted with 0.1% polyethyleneamine, using a Filtermate196 harvester (Packard, Meriden, Conn.). Filters were rinsed extensively with ice-cold buffer and radioactivity on the filters was counted in a Topcount liquid scintillation counter (Packard, Meriden, Conn.). Data were expressed as cpm. Imipramine (at 1 μM final concentration) was used to determine the non-specific binding.
(§2) Data from assays in the presence of compound were calculated as a percentage of total binding measured in the absence of test compound. Inhibition curves, plotting percent of total binding versus the log value of the concentration of the test compound, were automatically generated, and sigmoidal inhibition curves were fitted using non-linear regression. The pIC50 values of test compounds were derived from individual curves.

Assay [1] concerns the target T2, human adrenergic-α2A receptor (Homo sapiens, UniProt P08913).
T2 construct: expressed in transfected cells; host or cells: CHO cells, stably transfected; membrane preparation
T2 sequence (P08913 1-465): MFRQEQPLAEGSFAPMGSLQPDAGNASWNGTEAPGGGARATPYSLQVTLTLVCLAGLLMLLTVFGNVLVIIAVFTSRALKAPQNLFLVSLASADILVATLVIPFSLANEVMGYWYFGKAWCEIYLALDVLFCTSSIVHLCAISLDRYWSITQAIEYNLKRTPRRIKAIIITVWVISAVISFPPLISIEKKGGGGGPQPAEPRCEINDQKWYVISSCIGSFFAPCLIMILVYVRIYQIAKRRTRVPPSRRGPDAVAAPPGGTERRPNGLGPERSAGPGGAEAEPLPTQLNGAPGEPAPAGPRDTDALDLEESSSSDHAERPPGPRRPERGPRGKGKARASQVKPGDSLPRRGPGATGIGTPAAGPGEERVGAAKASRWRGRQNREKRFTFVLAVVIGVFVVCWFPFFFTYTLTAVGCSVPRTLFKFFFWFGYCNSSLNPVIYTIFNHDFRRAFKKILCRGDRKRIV
The assay can be described thus: Radioligand binding experiment for hα2A-adrenergic receptor ([3H]raulwolscine). To be noted: [3H]raulwolscine 1 nM, 60 minutes at 25° C.; for IC50: read-out: h-α2A pIC50 (converted). As for the experimental part: as §1
(§3) CHO cells, stabile transfected with human adrenergic-α2A, -α2B or α2C receptor cDNA, were cultured in Dulbecco's Modified Eagle's Medium (DMEM)/Nutrient mixture Ham's F12 (ratio 1:1)(Gibco, Gent-Belgium) supplemented with 10% heat inactivated fetal calf serum (Life Technologies, Merelbeke-Belgium) and antibiotics (100 IU/ml penicillin G, 100 μg/ml streptomycin sulphate, 110 μg/ml pyruvic acid and 100 μg/ml L-glutamine). One day before collection, cells were induced with 5 mM sodiumbutyrate. Upon 80-90% of confluence, cells were scraped in phosphate buffered saline without Ca^2+ and Mg^2+ and collected by centrifugation at 1500×g for 10 minutes. The cells were homogenised in Tris-HCl 50 mM using an Ultraturrax homogenizer and centrifuged for 10 minutes at 23,500×g. The pellet was washed once by resuspension and rehomogenization and the final pellet was resuspended in Tris-HCl, divided in 1 ml aliquots and stored at −70° C.
(§4) Membranes were thawed and re-homogenized in incubation buffer (glycylglycine 25 mM, pH 8.0). In a total volume of 500 μl, 2-10 μg protein was incubated with [^3H]raulwolscine (NET-722) (New England Nuclear, USA) (1 nM final concentration) with or without competitor for 60 minutes at 25° C. followed by rapid filtration over GF/B filter using a Filtermate196 harvester (Packard, Meriden, Conn.). Filters were rinsed extensively with ice-cold rinsing buffer (Tris-HCl 50 mM pH 7.4). Filter-bound radioactivity was determined by scintillation counting in a Topcount (Packard, Meriden, Conn.) and results were expressed as counts per minute (cpm). Non-specific binding was determined in the presence of 1 μM oxymetazoline for hα2A- and hα2B receptors and 1 μM spiroxatrine for hα2C receptors.
as §2

Assay [2] has as its target T3, human adrenergic-α2C receptor (Homo sapiens, UniProt P18825).
T3 construct: expressed in transfected cells; host or cells: CHO cells, stably transfected; membrane preparation
T3 sequence (P18825 1-462): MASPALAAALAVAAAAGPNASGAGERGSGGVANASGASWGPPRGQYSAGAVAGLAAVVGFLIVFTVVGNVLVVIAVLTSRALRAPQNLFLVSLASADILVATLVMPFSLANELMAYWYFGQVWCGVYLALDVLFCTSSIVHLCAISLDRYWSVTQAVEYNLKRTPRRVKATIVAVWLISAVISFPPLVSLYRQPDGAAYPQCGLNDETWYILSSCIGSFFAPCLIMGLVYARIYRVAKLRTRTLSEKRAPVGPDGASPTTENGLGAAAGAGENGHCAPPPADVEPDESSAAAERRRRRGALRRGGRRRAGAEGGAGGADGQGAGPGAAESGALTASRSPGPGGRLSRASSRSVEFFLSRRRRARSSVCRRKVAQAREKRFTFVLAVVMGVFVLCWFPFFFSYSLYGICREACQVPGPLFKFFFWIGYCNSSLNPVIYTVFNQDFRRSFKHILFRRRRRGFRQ
The assay can be described thus: Radioligand binding experiment for hα2C-adrenoceptor ([3H]raulwolscine). To be noted: [3H]raulwolscine 1 nM, 60 minutes at 25° C.; for IC50: read-out: h-α2C pIC50 (converted). As for the experimental part: as §1, §3, §4, §2

Bounds are passed on as bounds.

T1 sequence (P31645 whole entry): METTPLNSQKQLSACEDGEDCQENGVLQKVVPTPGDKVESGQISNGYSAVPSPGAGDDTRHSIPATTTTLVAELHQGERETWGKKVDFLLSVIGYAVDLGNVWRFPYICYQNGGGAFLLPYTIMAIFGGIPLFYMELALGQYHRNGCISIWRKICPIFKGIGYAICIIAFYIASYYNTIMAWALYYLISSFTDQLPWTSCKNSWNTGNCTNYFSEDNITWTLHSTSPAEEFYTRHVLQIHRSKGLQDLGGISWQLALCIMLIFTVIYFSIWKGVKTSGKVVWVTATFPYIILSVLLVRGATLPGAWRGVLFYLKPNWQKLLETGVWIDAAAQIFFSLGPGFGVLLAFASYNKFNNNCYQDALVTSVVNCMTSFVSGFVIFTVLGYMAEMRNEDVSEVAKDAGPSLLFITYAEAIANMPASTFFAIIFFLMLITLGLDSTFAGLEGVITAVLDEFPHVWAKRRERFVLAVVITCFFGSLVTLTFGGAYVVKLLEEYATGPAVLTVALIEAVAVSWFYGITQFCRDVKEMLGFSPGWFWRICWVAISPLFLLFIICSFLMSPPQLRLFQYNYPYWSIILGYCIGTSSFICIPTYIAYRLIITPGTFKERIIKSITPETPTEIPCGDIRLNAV

As for `CC(C)(Cc1ccccc1)NC(=O)Cn1ccnc(NC2CCN(Cc3ccc4ccccc4c3)CC2)c1=O` [1-73], the IC50 on 5HT-transporter was 158 nM; in assay [1] it was 398 nM; in assay [2], 39.8 nM.
In the case of `O=c1c(NC2CCN(Cc3ccc4ccccc4c3)CC2)nccn1-c1ccc(NCCN2CCC(F)CC2)cc1` [1-89], the IC50 at 5HT-transporter was 15.8 nM; in assay [1], 200 nM; in assay [2], 12.6 nM.
As to `CN(C(=O)Cn1ccnc(NC2CCN(Cc3ccc4ccccc4c3)CC2)c1=O)C1CCCCC1` [1-16], the IC50 was 251 nM at 5HT-transporter, 316 nM in assay [1] and 25.1 nM in assay [2].
Turning to `O=C(NCc1ccc(-n2ccnc(NC3CCN(Cc4ccc5ccccc5c4)CC3)c2=O)cc1)c1ccncc1` [1-101], the IC50 on 5HT-transporter is 6.31 nM; in assay [1] it was 501 nM; in assay [2], 25.1 nM.
For `CN1CCN(Cc2cccc(-c3[nH]c(=O)c(NC4CCN(Cc5ccc6ccccc6c5)CC4)nc3Cl)c2)CC1` [7-10], the IC50 is 200 nM at 5HT-transporter, 631 nM in assay [1] and 100 nM in assay [2].
Taken in the same sequence, the figures for `Cc1ccc(CN(Cc2ccc(-n3ccnc(NC4CCN(Cc5ccc6ccccc6c5)CC4)c3=O)cc2)Cc2ccc(C)o2)o1` [1-85] were 31.6 nM, 794 nM and 79.4 nM.
Consider `Cc1ccc(N2CCN(C(=O)Cn3ccnc(NC4CCN(Cc5ccc6ccccc6c5)CC4)c3=O)CC2)cc1C` [2-07], for which the figures for the IC50 (at 5HT-transporter; in assay [1]; in assay [2]) were 63.1 nM, 398 nM and 79.4 nM, respectively.
The matching figures for `O=C(Cn1ccnc(NC2CCN(Cc3ccc4ccccc4c3)CC2)c1=O)NCCN1CCOCC1` [1-94]: 2000 nM, 631 nM and 50.1 nM.
The matching figures for `COc1ccc(Cn2c(-c3ccc(CNCC4CCCO4)cc3)c(Cl)nc(NC3CCN(Cc4ccc5ccccc5c4)CC3)c2=O)cc1` (stereo not shown) [8-08]: 63.1 nM, 316 nM and 200 nM.
With `O=C(NCc1ccc(-n2ccnc(NC3CCN(Cc4ccc5ccccc5c4)CC3)c2=O)cc1)C1CCCO1` (racemic) [1-99], the “h-5HTT pIC50” value at 5HT-transporter is reported as 7.7. The “h-α2A pIC50” value in assay [1] is 6.2. The “h-α2C pIC50” value in assay [2] worked out at 8.1.
For `Cc1cc(CNCc2ccc(-n3ccnc(NC4CCN(Cc5ccc6ccccc6c5)CC4)c3=O)cc2F)no1` [1-87], the IC50 on 5HT-transporter is 12.6 nM; in assay [1], 251 nM; in assay [2], 12.6 nM.
On to `CCCNCc1ccc(-n2ccnc(NC3CCN(Cc4ccc5ccccc5c4)CC3)c2=O)cc1` [1-06], for which the values for the IC50 (on 5HT-transporter; in assay [1]; in assay [2]) were 20 nM, 251 nM and 10 nM, respectively.
As for `CN(Cc1ccccc1)Cc1ccc(-n2ccnc(NC3CCN(Cc4ccc5ccccc5c4)CC3)c2=O)cc1` [1-70], the “h-5HTT pIC50” value at 5HT-transporter is reported as 8.0. Moreover, the “h-α2A pIC50” value in assay [1] amounted to 6.5. Moreover, in assay [2], the “h-α2C pIC50” value is on record as 7.5.
For the compound `O=C(Nc1cccc(-n2ccnc(NC3CCN(Cc4ccc5ccccc5c4)CC3)c2=O)c1)c1ccc(F)cc1` [1-75], the figures for the IC50 (on 5HT-transporter; in assay [1]; in assay [2]) were 3.98 nM, 100 nM and 63.1 nM, respectively.
`O=c1c(NC2CCN(Cc3ccc4ccccc4c3)CC2)nccn1CCO` [3-01]: the IC50 was 100 nM at 5HT-transporter, 251 nM in assay [1] and 25.1 nM in assay [2].
With `O=c1c(NC2CCN(Cc3ccc4ccccc4c3)CC2)nccn1CCC1OCCO1` [4-04], the IC50 is 158 nM at 5HT-transporter, 501 nM in assay [1] and 79.4 nM in assay [2].
Consider `CC(C)(C)OC(=O)NCc1ccc(-n2ccnc(NC3CCN(Cc4ccc5ccccc5c4)CC3)c2=O)cc1` [1-33], for which the IC50 was 25.1 nM at 5HT-transporter, 501 nM in assay [1] and 79.4 nM in assay [2].
Take `NCc1ccc(Cn2ccnc(N3CCN(Cc4cccc5ccccc45)CC3)c2=O)cc1` [9-23]: the IC50 was 1260 nM on 5HT-transporter, 398 nM in assay [1] and 1000 nM in assay [2].
On to `CCOC(=O)N1CCC(NC(=O)NCc2ccc(-n3ccnc(NC4CCN(Cc5ccc6ccccc6c5)CC4)c3=O)cc2)CC1` [1-55], for which the figures for the IC50 (at 5HT-transporter; in assay [1]; in assay [2]) were 63.1 nM, 631 nM and 100 nM, respectively.
The matching figures for `O=C(Cn1ccnc(NC2CCN(Cc3ccc4ccccc4c3)CC2)c1=O)N1CCC(Cc2ccccc2)CC1` [2-15]: 200 nM, 251 nM and 31.6 nM.
As for `O=c1c(N2CCN(Cc3ccc4ccccc4n3)CC2)nccn1Cc1ccccc1` [9-29], the results for the IC50 (on 5HT-transporter; in assay [1]; in assay [2]) were over 10000 nM, 631 nM and 501 nM, respectively.
As for `CN(CCF)Cc1ccc(-n2ccnc(NC3CCN(Cc4ccc5ccccc5c4)CC3)c2=O)cc1` [1-14], the “h-5HTT pIC50” value at 5HT-transporter was found to be 7.8. The “h-α2A pIC50” value in assay [1] was found to be 6.9. The “h-α2C pIC50” value in assay [2] came out at 8.1.
Turning to `COCCNC(=O)NCc1ccc(-n2ccnc(NC3CCN(Cc4ccc5ccccc5c4)CC3)c2=O)cc1` [1-45], the results for the IC50 (at 5HT-transporter; in assay [1]; in assay [2]) were 25.1 nM, 398 nM and 31.6 nM, respectively.
Taken in the same sequence, the figures for `O=Cc1ccc(-n2ccnc(NC3CCN(Cc4ccc5ccccc5c4)CC3)c2=O)cc1F` [5-11] were 39.8 nM, 398 nM and 63.1 nM.
For the compound `O=c1c(NC2CCN(Cc3ccc4ccccc4c3)CC2)nccn1-c1ccc(CNCC2CCCO2)cc1` (stereo not shown) [1-79b], the IC50 was 2.51 nM at 5HT-transporter and 6.31 nM in assay [2].
Regarding `O=C1c2ccccc2C(=O)N1CC#CCn1ccnc(NC2CCN(Cc3ccc4ncccc4c3)CC2)c1=O` [9-30], the IC50 in assay [2] is 31.6 nM.
With `O=C1c2ccccc2C(=O)N1CC#CCn1ccnc(NC2CCN(Cc3ccc4ncccc4c3)CC2)c1=O` [9-11], the IC50 in assay [2] is 12.6 nM.
